Consider four compounds from patent US9359293B2, “Methods of treatment using modulators of SIRT2” (priority 2011, dated 2016).

Entries after “also recorded” stand apart in the source; their conditions may differ.

As a reminder, the IC50 is the point on the concentration scale where inhibition reaches its midpoint. Low readings indicate greater potency, high ones weaker potency.

For data set [1], the system named is triple negative breast cancer cell line MDA-MB-231. Put plainly: Soft agar assay (anchorage-independent growth). In kind it is cell-based. Particulars: 25 μM, FIGS. 4(A), 4(B). The protocol:
Next, the ability of these inhibiting compounds to inhibit cancer cell proliferation was tested. MCF-7 and MDA-MB-231 cells (ATCC) were both maintained in RPMI 1640 media (Invitrogen®) supplemented with 10% heat-inactivated fetal bovine serum (FBS). MCF-10A (ATCC) cells were maintained in Dulbecco's Modified Eagle Medium: Nutrient Mixture F-12 (DMEM/F12) (Invitrogen®) supplemented with 10% horse serum (Invitrogen®).
The 0.6% agarose type VII (Sigma), 10% FBS and 1% Penicillin-Streptomycin (Invitrogen®) were prepared in RPMI 1640 medium, and added to a six-well culture plate (2 mL/well). The plates were kept at […] for 20 minutes to allow the agarose to solidify. Plates were then incubated at 37° C. for 5 minutes before the addition of the 1 mL soft agar/cell solution prepared by mixing 0.3% agarose type VII, 10% FBS, 1% Penicillin-Streptomycin and ˜3000 cells in RPMI 1640 medium. Again, the plates were kept at 4° C. for 20 minutes to allow the agarose to solidify. After the plates were incubated at 37° C. for 7 days, 1 mL of RPMI 1640 medium with 0.3% agarose type VII, 10% FBS and 1% Penicillin-Streptomycin was added to the plates and the plates kept at 4° C. for 20 minutes to allow the agarose to solidify. After the plates were incubated at 37° C. for another 7 days, the colony formations were examined under a microscope. All the experiments were duplicated. […]

A further data set concerns the target Sirt5 (Homo sapiens (Human), UniProt Q9NXA8). Put plainly: Sirtuin deacylase inhibition, HPLC assay (H3K9Su peptide). Particulars: 1 μM sirtuin, 1 mM NAD, 30 min pre-incubation, 10 minutes. The data set is classed as biochemical. The protocol:
(§1) Distinct selectivity profiles were found for each of the inhibitors studied. Different concentrations of TA, TB, TH, or TM were pre-incubated with 1 μM of the sirtuin and 1 mM NAD in 20 mM Tris-HCl buffer (pH 8.0) with 1 mM dithiothreitol (DTT) at 37° C. for 30 minutes. Then 0.05 mM acyl peptides (H3K9Ac for Sirt1, Sirt2 and Sirt3; H3K9Su for Sirt5; H3K9Myr for Sirt6 and Sirt7) were added to initiate the reactions. The total reaction volume iwas […]. Then reactions were incubated at 37° C. for a certain amount of time (2 minutes for Sirt1, 10 minutes for Sirt2 and Sirt5, 30 minutes for Sirt3, and 1 hour for Sirt6 and Sirt7). The reactions were stopped by adding […] of an aqueous solution containing 200 mM HCl and 320 mM acetic acid. After centrifugation to remove precipitated proteins, the supernatant was analyzed by HPLC with a reverse phase C18 column (250×4.6 mm, 90 A, […], GraceVydac, Southborough, Mass.), with a linear gradient of 0% to 20% B for 10 minutes (1 mL/min). […] All reactions were done in duplicate.

Another data set deals with Sirt6 (Homo sapiens (Human), UniProt Q8N6T7). As to the kind of experiment: Sirtuin deacylase inhibition, HPLC assay (H3K9Myr peptide). Particulars: 1 μM sirtuin, 1 mM NAD, 30 min pre-incubation, 1 hour. In kind it is biochemical. On the procedure:
as §1

Another data set deals with Sirt7 (Homo sapiens (Human), UniProt Q9NRC8). The data set is described as above. Particulars: 1 μM sirtuin, 1 mM NAD, 30 min pre-incubation, 1 hour. In kind it is biochemical. The protocol: as §1
Sirt7, sequence (Q9NRC8 whole entry): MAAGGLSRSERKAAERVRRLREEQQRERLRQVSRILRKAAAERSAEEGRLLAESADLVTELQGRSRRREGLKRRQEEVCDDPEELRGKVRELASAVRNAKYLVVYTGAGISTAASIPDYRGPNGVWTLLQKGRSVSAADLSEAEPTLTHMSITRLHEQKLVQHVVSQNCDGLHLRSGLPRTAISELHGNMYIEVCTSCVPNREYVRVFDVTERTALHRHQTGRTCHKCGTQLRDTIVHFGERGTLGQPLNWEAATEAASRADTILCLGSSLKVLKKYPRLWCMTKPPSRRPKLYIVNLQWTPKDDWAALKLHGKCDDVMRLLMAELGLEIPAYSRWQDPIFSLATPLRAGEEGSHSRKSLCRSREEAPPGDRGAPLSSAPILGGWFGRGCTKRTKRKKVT
In the next data set the test system is MCF10a normal cell line. Put plainly: Low serum survival assay (normal cell proliferation). The data set is classed as cell-based, human. Particulars: 25 μM, FIG. 3(B), compared with MCF7.
The target of another data set is Sirt1 (Homo sapiens (Human), UniProt Q96EB6). As to the kind of experiment: Sirtuin deacylase inhibition, HPLC assay (H3K9Ac peptide). The data set is classed as biochemical. Particulars: for IC50: 1 μM sirtuin, 1 mM NAD, 30 min pre-incubation, H3K9Ac, 2 minutes; for inhibition of Sirt1 (in words): summary of Table 1. The protocol: as §1, with “Then” for “Distinct selectivity profiles were found for each of the inhibitors studied. Different concentrations of TA, TB, TH, or TM were pre-incubated with 1 μM of the sirtuin and 1 mM NAD in 20 mM Tris-HCl buffer (pH 8.0) with 1 mM dithiothreitol (DTT) at 37° C. for 30 minutes. Then”
Sirt1, sequence (Q96EB6 whole entry): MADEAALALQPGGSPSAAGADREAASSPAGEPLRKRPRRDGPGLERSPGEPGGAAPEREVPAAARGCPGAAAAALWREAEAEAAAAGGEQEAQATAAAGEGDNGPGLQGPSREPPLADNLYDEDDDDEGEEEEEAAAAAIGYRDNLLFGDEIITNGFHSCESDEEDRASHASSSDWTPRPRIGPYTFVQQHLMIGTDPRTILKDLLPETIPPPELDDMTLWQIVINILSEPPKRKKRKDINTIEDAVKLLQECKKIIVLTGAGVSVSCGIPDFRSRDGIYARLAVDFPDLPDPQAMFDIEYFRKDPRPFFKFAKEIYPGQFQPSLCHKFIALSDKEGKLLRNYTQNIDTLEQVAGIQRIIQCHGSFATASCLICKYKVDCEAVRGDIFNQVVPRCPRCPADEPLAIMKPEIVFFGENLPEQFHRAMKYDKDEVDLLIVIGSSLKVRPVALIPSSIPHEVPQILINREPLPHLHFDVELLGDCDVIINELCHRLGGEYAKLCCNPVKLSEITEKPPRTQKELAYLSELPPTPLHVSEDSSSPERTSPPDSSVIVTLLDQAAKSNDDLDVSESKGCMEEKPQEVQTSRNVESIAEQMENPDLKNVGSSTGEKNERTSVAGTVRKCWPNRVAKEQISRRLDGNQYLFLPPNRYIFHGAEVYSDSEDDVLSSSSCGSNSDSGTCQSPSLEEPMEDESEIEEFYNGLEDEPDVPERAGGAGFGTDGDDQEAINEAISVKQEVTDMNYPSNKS

The next data set addresses Sirt2 (Homo sapiens (Human), UniProt Q8IXJ6). The description is as above. The data set is classed as biochemical. Particulars: for IC50: 1 μM sirtuin, 1 mM NAD, 30 min pre-incubation, H3K9Ac, 10 minutes. On the procedure: as §1, with “Then” for “Distinct selectivity profiles were found for each of the inhibitors studied. Different concentrations of TA, TB, TH, or TM were pre-incubated with 1 μM of the sirtuin and 1 mM NAD in 20 mM Tris-HCl buffer (pH 8.0) with 1 mM dithiothreitol (DTT) at 37° C. for 30 minutes. Then”

For the next data set, the target named is Sirt3 (Homo sapiens (Human), UniProt Q9NTG7). The data set is described as above. The data set is classed as biochemical. Particulars: 1 μM sirtuin, 1 mM NAD, 30 min pre-incubation. The protocol:
as §1

Sirt6, sequence (Q8N6T7 whole entry): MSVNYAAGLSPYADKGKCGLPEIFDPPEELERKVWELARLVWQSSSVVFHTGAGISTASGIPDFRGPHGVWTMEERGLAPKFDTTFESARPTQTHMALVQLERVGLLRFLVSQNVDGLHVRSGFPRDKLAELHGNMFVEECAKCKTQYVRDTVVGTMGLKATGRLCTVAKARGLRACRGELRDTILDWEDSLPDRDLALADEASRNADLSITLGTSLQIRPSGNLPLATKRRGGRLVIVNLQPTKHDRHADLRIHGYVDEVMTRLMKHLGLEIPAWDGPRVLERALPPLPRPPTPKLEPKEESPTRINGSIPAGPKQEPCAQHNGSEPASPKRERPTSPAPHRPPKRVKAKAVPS
Sirt5, sequence (Q9NXA8 37-310): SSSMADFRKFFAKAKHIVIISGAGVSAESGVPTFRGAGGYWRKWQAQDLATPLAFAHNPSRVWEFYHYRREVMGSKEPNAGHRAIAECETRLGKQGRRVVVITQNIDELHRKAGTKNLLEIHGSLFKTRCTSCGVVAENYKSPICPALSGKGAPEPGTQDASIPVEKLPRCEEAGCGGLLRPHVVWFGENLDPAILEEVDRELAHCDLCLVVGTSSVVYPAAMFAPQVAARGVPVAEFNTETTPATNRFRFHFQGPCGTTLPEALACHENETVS
Sirt2, sequence (Q8IXJ6 whole entry): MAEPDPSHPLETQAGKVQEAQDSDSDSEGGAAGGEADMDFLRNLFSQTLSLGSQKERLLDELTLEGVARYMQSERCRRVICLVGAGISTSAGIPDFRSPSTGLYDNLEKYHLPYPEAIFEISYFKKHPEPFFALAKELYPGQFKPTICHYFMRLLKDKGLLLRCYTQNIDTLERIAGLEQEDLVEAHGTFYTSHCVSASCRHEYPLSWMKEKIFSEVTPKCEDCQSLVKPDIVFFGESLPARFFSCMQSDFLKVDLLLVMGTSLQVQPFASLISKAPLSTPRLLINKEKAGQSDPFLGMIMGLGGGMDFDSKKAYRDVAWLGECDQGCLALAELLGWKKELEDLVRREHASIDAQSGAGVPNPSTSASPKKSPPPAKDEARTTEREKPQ
Sirt3, sequence (Q9NTG7 whole entry): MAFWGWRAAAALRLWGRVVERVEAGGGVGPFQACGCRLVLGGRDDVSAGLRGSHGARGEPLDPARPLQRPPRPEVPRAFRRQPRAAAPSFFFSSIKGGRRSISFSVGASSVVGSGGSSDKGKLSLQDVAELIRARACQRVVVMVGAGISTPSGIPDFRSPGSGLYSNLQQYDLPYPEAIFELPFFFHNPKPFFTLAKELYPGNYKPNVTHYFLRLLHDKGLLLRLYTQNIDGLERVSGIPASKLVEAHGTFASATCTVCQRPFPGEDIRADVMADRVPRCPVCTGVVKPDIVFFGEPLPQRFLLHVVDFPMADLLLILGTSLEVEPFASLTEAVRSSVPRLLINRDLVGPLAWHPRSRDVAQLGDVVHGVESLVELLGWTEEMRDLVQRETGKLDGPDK

On to `CCCCCCCCCCCCCC(=S)NCCCCC(NC(=O)OCc1ccccc1)C(=O)Nc1ccccc1` (stereo not shown) [TM], for which the “inhibition of anchorage-independent growth of MDA-MB-231” value in data set [1] was “can inhibit the anchorage-independent growth”. In addition, the IC50 against Sirt5, on Sirt6 and against Sirt7 was more than 205 µM each time. In addition, the “effect on growth of MCF10a normal non-tumorigenic cells” value in the data set on MCF10a normal cell line is recorded as “much less than that in the MCF7 cancer cell line; also recorded: can still grow”.
On to `CC(=S)NCCCCC(NC(=O)OCc1ccccc1)C(=O)Nc1ccccc1` (stereo not shown) [TA], for which the IC50 against Sirt5 was more than 205 µM; at Sirt1 it was 30 µM; at Sirt2, 105 µM; at Sirt6, more than 205 µM; at Sirt7, more than 205 µM; against Sirt3, more than 205 µM.
Turning to `CCCC(=S)NCCCCC(NC(=O)OCc1ccccc1)C(=O)Nc1ccccc1` (stereo not shown) [TB], the IC50 was more than 205 µM against Sirt5; 2.4 µM at Sirt1; 3 µM at Sirt2; more than 205 µM at Sirt6; more than 205 µM on Sirt7. The “inhibition of Sirt1 (in words)” value at Sirt1 is recorded as “efficiently inhibit”.
Take `CCCCCCC(=S)NCCCCC(NC(=O)OCc1ccccc1)C(=O)Nc1ccccc1` (stereo not shown) [TH]: the 50% inhibitory concentration (IC50) at Sirt5 was more than 205 µM; at Sirt1, 0.31 µM; at Sirt2, 0.12 µM; against Sirt6, more than 205 µM; against Sirt7 it was more than 205 µM. Moreover, the “inhibition of Sirt1 (in words)” value against Sirt1 was “efficiently inhibit”. Further, the “inhibition of Sirt2 (in words)” value against Sirt2 (summary of Table 1) is reported as “efficiently inhibit”. Further, the “effect on growth of MCF10a normal non-tumorigenic cells” value in the data set on MCF10a normal cell line was “much less than that in the MCF7 cancer cell line; also recorded: can still grow”.
